Results reported in patent US20230331679A1, “NAPHTHALENE MONOIMIDE COMPOUNDS AND METHODS THEREOF” (JAWAHARLAL NEHRU CENTRE FOR ADVANCED SCIENTIFIC RESEARCH, priority 2020, published 2023).

Legend:
Full length tau = molecular target: T1, Full length tau (Homo sapiens, UniProt P10636); experiment: ThT fluorescence assay, inhibition of tau aggregation; assay type: biochemical; details: for ThT fluorescence signal compared with untreated controls (100%): tau 5 µM, heparin 1.25 µM, 72 h at 37° C.
T1 construct: Full length tau (5 µM) was incubated with TGR63
Description: Tau is a microtubule-associated proteins that interacts with tubulin and stimulates its assembly into microtubules. The extent of phosphorylation regulates the activity of tau protein and the hyperphosphorylation diminishes its physiological function leading to several neuronal disorders like AD and tauopathies. The self-aggregation of hyperphosphorylated tau form intracellular neurofibrillary tangles (NFTs) and paired helical filaments (PHFs) that impairs the axonal functions and degenerates neuronal cells. Considering the prominent role of tau in AD pathology, the self-aggregation and deposition of hyperphosphorylated tau became a potential target to tackle AD and related tauopathies. Effect of TGR63 on tau aggregation was assessed. Full length tau (5 µM) was incubated with TGR63 (5 and 25 µM) for 72 h at 37° C. in the presence of aggregation inducer (heparin; 1.25 µM). The extent of aggregation of incubated samples were assessed by ThT fluorescence (λex= 442 nm and λem=482 nm) assay. FIG. 25 depicts the inhibition of tau (5 µM) aggregation in presence of TGR63. As expected, the ThT fluorescence signal was increased by ~15 folds with compare to only ThT, which confirmed the formation of pathogenic tau aggregates.

APP/PS1 mice = experiment: Open field (OF) test; assay type: in vivo; details: AD TGR63 cohort
Method: In OF test, all the experimental mice were individually allowed to explore a novel platform (45 X 45 cm) and their locomotion activity was monitored for 5 min (Sony HDRCX405 camera) and analyzed using the smart 3 software (Panlab; FIG. 16A). […] The anxiety behaviors of TGR63 treated mice were assessed by the time spent and the entries in the center zone (20 X 20 cm) of OF arena. […] Next, the effect of TGR63 on memory processing, viz., acquisition, consolidation and retrieval were evaluated through NOI test, which has been widely used as a tool to study the neurobiology of memory using the natural tendency of rodents to explore novel objects more than the familiar objects. All the experimental mice were familiarized with two identical objects (familiar objects) in a known habituated arena and allowed to explore a novel and familiar object after 24 and 48 h of familiarization (FIG. 16E). The exploration time with each object was measured using a stopwatch, and the discrimination index (DI) was determined using the formula, (time exploring the novel object - time exploring the familiar) / (time exploring novel + familiar) * 100. […] Similarly, the calculated DI after 48 h was lowest (-7) for AD vehicle cohort compared to both vehicle and TGR63 treated WT cohorts (+43 and +45, respectively) (FIG. 16G). […] The blocking of essential synaptic receptors (NMDA and AMPA) by Aβ aggregation species leading to synaptic dysfunction followed by impairment in hippocampal LTP formation. […] TGR63 treatment ameliorates the memory impairment in APP/PS 1 mice by reducing the toxic amyloid burden from the brain under progressive AD conditions.

SHSY5Y cells = experiment: Membrane toxicity modulation, immunocytochemistry in SHSY5Y cells; assay type: cell-based; details: Aβ42 pre-incubated 24 h with TGR63, 2 h treatment
Method: Inspiring from the above-mentioned studies, membrane toxicity modulation ability of TGR63 through immunocytochemistry in SHSY5Y cells was also investigated. The cells were cultured in 35 mm confocal dishes and treated individually with Aβ42 samples, pre-incubated for 24 h in the presence and absence of TGR63 for 2 h under cell growing conditions. Then the experimental cells were washed and fixed using 4% paraformaldehyde (PFA) to probe the Aβ42 fibrils with OC (1:250) antibody, followed by red fluorescent labeled (λex= 633 nm and λem= 650 nm) secondary antibody (Alexa 633-A21052, Thermo). Finally, unbound antibody was washed and 4′,6-diamidino-2-phenylindole (DAPI) was used to stain the nucleus before the confocal imaging. For DAPI staining, experimental cells were incubated with DAPI (500 nM) solution (PBS) for 10 min at room temperature. Then, the cells were washed with PBS three times and imaged under confocal fluorescence microscope (λex= 358 nm, […]). FIG. 5 depicts the images obtained by nuclear staining of SHSY5Y cells with DAPI(blue) and Aβ42 fibrils staining with OC antibody and red fluorescent labelled secondary antibody.

Aβ42 peptide = molecular target: T2, Aβ42 peptide (Homo sapiens, UniProt P05067); experiment: 1H NMR study of molecular interactions between TGR63 and Aβ42; assay type: binding; details: Aβ42 10 µM, D2O (12%) containing PBS, 24, 48 and 72 h
T2 construct: commercially available β-amyloid peptide (1-42), human; purchased marck (so in the source) PP69-.025 mg
Method: Nuclear magnetic resonance (NMR) spectroscopy was performed to ascertain the molecular level interactions between TGR63 and Aβ42 peptide. ^1H NMR spectra of TGR63 were acquired in absence and presence of Aβ42 (10 µM) peptides using the WATERGATE sequence for solvent suppression in deuterium oxide (D2O, 12%) containing PBS at different incubation time points (24, 48 and 72 h). […] The aromatic protons of NMI and aniline moieties (a-f) appeared at 6.5-8.8 ppm, respectively. However, the splitting patterns of all the aromatic peaks were completely readjusted undergoing a significant downfield shift over a period of time in the presence of Aβ42 peptide. This observation confirmed the interaction of aromatic moieties (π-electron rich) of TGR63 with native and misfolded Aβ42 peptides, which leads to alteration in the extent of nuclei and proximal electron coupling (J-couplings).

T1 sequence (P10636 1-441 isoform P10636-8): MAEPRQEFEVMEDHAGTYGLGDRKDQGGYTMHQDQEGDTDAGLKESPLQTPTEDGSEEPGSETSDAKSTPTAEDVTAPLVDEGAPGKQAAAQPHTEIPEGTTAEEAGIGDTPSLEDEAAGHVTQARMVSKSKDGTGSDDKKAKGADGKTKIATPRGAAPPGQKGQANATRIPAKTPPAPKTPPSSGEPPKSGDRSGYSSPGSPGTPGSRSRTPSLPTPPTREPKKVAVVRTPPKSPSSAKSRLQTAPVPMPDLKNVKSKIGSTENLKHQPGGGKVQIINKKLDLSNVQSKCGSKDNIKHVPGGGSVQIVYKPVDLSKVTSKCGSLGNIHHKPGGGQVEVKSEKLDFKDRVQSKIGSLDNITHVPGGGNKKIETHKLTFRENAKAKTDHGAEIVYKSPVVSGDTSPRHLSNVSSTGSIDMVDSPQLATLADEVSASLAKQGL
T2 sequence (P05067 672-713 limits assumed): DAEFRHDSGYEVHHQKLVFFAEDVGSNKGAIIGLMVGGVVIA

CN(C)c1ccc(C#Cc2ccc3c4c(cccc24)C(=O)N(CC[N+](C)(C)C)C3=O)cc1 [TGR63, 2-(6-((4-(dimethylamino)phenyl)ethynyl)-1,3-dioxo-1H-benzo[de]isoquinolin-2(3H)-yl)-N,N,N-trimethylethan-1-aminium]
ThT fluorescence signal compared with untreated controls (100%) (Full length tau; TGR63 5 µM): ~ 72%
ThT fluorescence signal compared with untreated controls (100%) (Full length tau; TGR63 25 µM): ~52%
reduction of tau aggregates (Full length tau; tau:TGR63 1:1): ~ 28%
reduction of tau aggregates (Full length tau; tau:TGR63 1:5): ~48%
total distance traveled (average) (APP/PS1 mice; 5 min, AD vehicle 2698.25 cm, WT vehicle 1533.88 cm): 1515.33 cm
distance traveled in the center zone (average) (APP/PS1 mice; AD vehicle 243.0 cm): 98.14 cm
number of entries into the center zone (APP/PS1 mice; AD vehicle ~20): ~ 9 entries
OC red fluorescence signal of Aβ42 fibrils on plasma membrane (SHSY5Y cells): lower red fluorescence signal on the plasma membrane
interaction with Aβ42 peptides (1H NMR) (Aβ42 peptide): interacts with native and misfolded Aβ42 peptides
